{
  "source": "patent US7419981B2",
  "about": "“Synergistic combinations of an alpha-2-delta ligand and a cGMP phosphodieterse 5 inhibitor” (Pfizer Inc., priority 2002, dated 2008)",
  "key": {"[1]": {"system": "CCI-induced static allodynia", "test": "CCI-induced static allodynia, paw withdrawal threshold to von Frey hairs", "format": "in vivo, rat", "settings": "for time of peak antiallodynic actions: post administration, CCI-induced static model; for blockade of static allodynia: alone; for minimum effective dose (MED), blockade of maintenance of static allodynia: administered alone, gabapentin p.o., sildenafil s.c.", "experimental": "Male Sprague Dawley rats (200-250 g), obtained from Charles River, (Margate, Kent, U.K.) were housed in groups of 6. All animals were kept under a 12 h light/dark cycle (lights on at 07 h 00 min) with food and water ad libitum. All experiments were carried out by an observer unaware of drug treatments.\nAnimals were anaesthetised with isoflurane. The sciatic nerve was ligated as previously described by Bennett and Xie, 1988. Animals were placed on a homeothermic blanket for the duration of the procedure. After surgical preparation the common sciatic nerve was exposed at the middle of the thigh by blunt dissection through biceps femoris. Proximal to the sciatic trifurcation, about 7 mm of nerve was freed of adhering tissue and 4 ligatures (4-0 silk) were tied loosely around it with about 1 mm spacing. The incision was closed in layers and the wound treated with topical antibiotics.\nDose-responses to gabapentin and sildenafil were first performed alone in the CCI model. Combinations were examined following a fixed ratio design. A dose-response to each fixed dose ratio of the combination was performed. On each test day, baseline paw withdrawal thresholds (PWT) to von Frey hairs and paw withdrawal latencies (PWL) to a cotton bud stimulus were determined prior to drug treatment. Gabapentin was administered p.o. directly followed by s.c. administration of sildenafil and PWT and PWL re-examined for up to 5 h. The data are expressed at the 2 h time point for both the static and dynamic data as this timepoint represent the peak antiallodynic effects.\nStatic allodynia was measured using Semmes-Weinstein von Frey hairs (Stoelting, Illinois, U.S.A.). Animals were placed into wire mesh bottom cages allowing access to the underside of their paws. Animals were habituated to this environment prior to the start of the experiment. Static allodynia was tested by touching the plantar surface of the animals right hind paw with von Frey hairs in ascending order of force (0.7, 1.2, 1.5, 2, 3.6, 5.5, 8.5, 11.8, 15.1 and 29 g) for up to 6 sec. Once a withdrawal response was established, the paw was re-tested, starting with the next descending von Frey hair until no response occurred. The highest force of 29 g lifted the paw as well as eliciting a response, thus represented the cut off point. The lowest amount of force required to elicit a response was recorded as the PWT in grams."}, "[2]": {"system": "CCI-induced static allodynia", "test": "CCI-induced static allodynia, paw withdrawal threshold to von Frey hairs", "format": "in vivo, rat", "settings": "Table 1; ratio 1:0, pregabalin 30 mg/kg alone"}, "[3]": {"system": "CCI-induced dynamic allodynia", "test": "CCI-induced dynamic allodynia, paw withdrawal latency to cotton bud stimulus", "format": "in vivo, rat", "settings": "for blockade of dynamic allodynia: alone; for minimum effective dose (MED), blockade of maintenance of dynamic allodynia: administered alone, gabapentin p.o., sildenafil s.c.; for time of peak antiallodynic actions: post administration, CCI-induced dynamic model", "experimental": "Male Sprague Dawley rats (200-250 g), obtained from Charles River, (Margate, Kent, U.K.) were housed in groups of 6. All animals were kept under a 12 h light/dark cycle (lights on at 07 h 00 min) with food and water ad libitum. All experiments were carried out by an observer unaware of drug treatments. Animals were anaesthetised with isoflurane. The sciatic nerve was ligated as previously described by Bennett and Xie, 1988. Animals were placed on a homeothermic blanket for the duration of the procedure. After surgical preparation the common sciatic nerve was exposed at the middle of the thigh by blunt dissection through biceps femoris. Proximal to the sciatic trifurcation, about 7 mm of nerve was freed of adhering tissue and 4 ligatures (4-0 silk) were tied loosely around it with about 1 mm spacing. The incision was closed in layers and the wound treated with topical antibiotics. […] Combinations were examined following a fixed ratio design. A dose-response to each fixed dose ratio of the combination was performed. On each test day, baseline paw withdrawal thresholds (PWT) to von Frey hairs and paw withdrawal latencies (PWL) to a cotton bud stimulus were determined prior to drug treatment. […] Dynamic allodynia was assessed by lightly stroking the plantar surface of the hind paw with a cotton bud. Care was taken to perform this procedure in fully habituated rats that were not active to avoid recording general motor activity. At least three measurements were taken at each time point the mean of which represented the paw withdrawal latency (PWL). […] Thus 15 s effectively represents no withdrawal. A withdrawal response was often accompanied with repeated flinching or licking of the paw. Dynamic allodynia was considered to be present if animals responded to the cotton stimulus before 8 s of stroking."}},
  "note": "Structures can show the parent of a compound that is named as a salt.",
  "data": [
    {"smiles": "CCCC(C)(C)CC(CN)C(=O)O.Cl", "note": "(centres unmarked)", "values": [
      {"measurement": "melting point", "result": "229.5 to 231", "unit": "°C"}
    ]},
    {"smiles": "CCCOc1ccc(S(=O)(=O)N2CCN(CC)CC2)cc1-c1nc2c(CC)n(Cc3ccccn3)nc2c(=O)[nH]1", "note": "[Compound AA, 3-Ethyl-5-[5-(4-ethyl-piperazine-1-sulfonyl)-2-propoxy-phenyl]-2-pyridin-2-ylmethyl-2,6-dihydro-pyrazolo[4,3-d]pyrimidin-7-one]", "values": [
      {"measurement": "% reversal of allodynia", "setting": "[1]; Table 2, ratio 0:1, 30 mg/kg alone (dose column headed Sildenafil)", "result": 50, "unit": "%"},
      {"measurement": "time of peak antiallodynic actions", "setting": "[1]", "result": 2, "unit": "h"}
    ]},
    {"smiles": "CCCC[C@@H](C)C[C@H](N)CC(=O)O", "note": "(as salt: hydrochloride)", "values": [
      {"measurement": "melting point", "result": "142.5 to 143.3", "unit": "°C"}
    ]},
    {"smiles": "CCC[C@@H](C)C[C@H](CN)C(=O)O", "note": "(as salt: hydrochloride)", "values": [
      {"measurement": "melting point", "result": "226.3 to 228", "unit": "°C"}
    ]},
    {"smiles": "CCCC(C)(C)C[C@H](N)CC(=O)O", "note": "(as salt: hydrochloride) (hydrate or solvate)", "values": [
      {"measurement": "melting point", "result": "194.2 to 195.2", "unit": "°C"}
    ]},
    {"smiles": "CC(C)C[C@H](CN)CC(=O)O", "note": "[Pregabalin, (S)-(+)-4-amino-3-(2-methylpropyl)butanoic acid]", "values": [
      {"measurement": "time of peak antiallodynic actions", "setting": "[1]", "result": 2, "unit": "h"},
      {"measurement": "% reversal of allodynia", "setting": "[2]", "result": 100, "unit": "%"}
    ]},
    {"smiles": "NCC1(CC(=O)O)CCCCC1", "note": "[Gabapentin, 1-(aminomethyl)-cyclohexylacetic acid]", "values": [
      {"measurement": "blockade of static allodynia", "setting": "[1]; 100 mg/kg p.o.", "result": "complete blockade"},
      {"measurement": "% reversal of allodynia", "setting": "[1]; Table 2, ratio 1:0, gabapentin 100 mg/kg alone", "result": 100, "unit": "%"},
      {"measurement": "minimum effective dose (MED), blockade of maintenance of static allodynia", "setting": "[1]", "result": 10, "unit": "mg/kg"},
      {"measurement": "time of peak antiallodynic actions", "setting": "[1]", "result": 2, "unit": "h"},
      {"measurement": "blockade of dynamic allodynia", "setting": "[3]; 100 mg/kg p.o.", "result": "complete blockade"},
      {"measurement": "minimum effective dose (MED), blockade of maintenance of dynamic allodynia", "setting": "[3]", "result": 10, "unit": "mg/kg"},
      {"measurement": "time of peak antiallodynic actions", "setting": "[3]", "result": 2, "unit": "h"}
    ]},
    {"smiles": "CCC[C@@H](C)C[C@H](N)CC(=O)O.Cl", "values": [
      {"measurement": "melting point", "result": "142.5 to 142.7", "unit": "°C"}
    ]},
    {"smiles": "CCCc1nn(C)c2c(=O)[nH]c(-c3cc(S(=O)(=O)N4CCN(C)CC4)ccc3OCC)nc12", "note": "[Sildenafil, 5-[2-ethoxy-5-(4-methyl-1-piperazinylsulphonyl)phenyl]-1-methyl-3-n-propyl-1,6-dihydro-7H-pyrazolo[4,3-d]pyrimidin-7-one]", "values": [
      {"measurement": "blockade of static allodynia", "setting": "[1]; 30 mg/kg s.c.", "result": "~60", "unit": "%"},
      {"measurement": "% reversal of allodynia", "setting": "[1]; Table 1, ratio 0:1, sildenafil 30 mg/kg alone", "result": 50, "unit": "%"},
      {"measurement": "minimum effective dose (MED), blockade of maintenance of static allodynia", "setting": "[1]", "result": 10, "unit": "mg/kg"},
      {"measurement": "time of peak antiallodynic actions", "setting": "[1]", "result": 2, "unit": "h"},
      {"measurement": "blockade of dynamic allodynia", "setting": "[3]; 30 mg/kg s.c. (MED)", "result": 25, "unit": "%"},
      {"measurement": "minimum effective dose (MED), blockade of maintenance of dynamic allodynia", "setting": "[3]", "result": 30, "unit": "mg/kg"},
      {"measurement": "time of peak antiallodynic actions", "setting": "[3]", "result": 2, "unit": "h"}
    ]}
  ]
}
